This passage reports TGI results from PubChem BioAssay (NCI).

Among the test systems are OVCAR-3 ovarian; SK-OV-3 ovarian; OVCAR-5 ovarian; HOP-92 NSCLC; CCRF-CEM leukemia; SK-MEL-5 melanoma; KM12 colon; HT29 colon; COLO 205 colon; HCT-116 colon; K-562 leukemia; U251 CNS; BT-549 breast.
Assay in all cases: NCI anticancer screen, dose series, 48 h

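In this assay, cells in 96-well plates receive the compound at five concentrations for 48 hours. Endpoints are linearly interpolated between the surrounding concentrations. TGI: total growth inhibition.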

With `CN(O)C(=O)CCC(NC(=O)CCC(N)C(=O)O)C(=O)NCC(=O)O` (stereo unspecified), the TGI with OVCAR-3 ovarian, with SK-OV-3 ovarian, with OVCAR-5 ovarian, with HOP-92 NSCLC, in the assay with CCRF-CEM leukemia and in the assay on SK-MEL-5 melanoma was above 100 µM in each case. Further, the TGI in the assay on KM12 colon, in the assay on HT29 colon, in the assay on COLO 205 colon, with HCT-116 colon, in the assay with K-562 leukemia and with U251 CNS was above 100 µM throughout. In the assay on BT-549 breast, the TGI is above 100 µM.
On to `S=C(NCc1ccccc1)Nc1sc(=NCc2ccccc2)nc2sc3c(c12)CCN(N1CCc2c(sc4nc(=NCc5ccccc5)sc(NC(=S)NCc5ccccc5)c24)C1)C3`, for which the TGI with OVCAR-3 ovarian was above 100 µM; in the assay on SK-OV-3 ovarian it was 99.6 µM; in the assay with OVCAR-5 ovarian, above 85.2 µM; in the assay with HOP-92 NSCLC it was above 100 µM; in the assay with CCRF-CEM leukemia, above 70.2 µM; with SK-MEL-5 melanoma, above 100 µM. Besides, the TGI in the assay with KM12 colon is above 67.5 µM; with HT29 colon, 43.3 µM; with COLO 205 colon, above 100 µM; in the assay on HCT-116 colon, above 54.2 µM; in the assay with K-562 leukemia, above 100 µM; in the assay on U251 CNS it was above 47.5 µM. Moreover, the TGI with BT-549 breast was above 85.6 µM.
As for `C#C[C@]1(O)CC[C@H]2[C@@H]3CCC4=C/C(=N\OCCN5CCCCC5)CC[C@]4(C)[C@H]3CC[C@@]21C`, the TGI is 16.4 µM in the assay on OVCAR-3 ovarian; 31.2 µM in the assay with SK-OV-3 ovarian; 28.1 µM in the assay on OVCAR-5 ovarian; 50.8 µM with HOP-92 NSCLC; above 53.8 µM with CCRF-CEM leukemia; 6.19 µM with SK-MEL-5 melanoma. Also, the TGI stood at 12.3 µM in the assay on KM12 colon; 22.4 µM in the assay with HT29 colon; 7.43 µM in the assay on COLO 205 colon; 22.2 µM in the assay on HCT-116 colon; 8.27 µM in the assay on K-562 leukemia; 33.6 µM in the assay with U251 CNS. The compound further gave a TGI with BT-549 breast of 17.6 µM.
Take `COC(=O)C(CNC(=O)/C=C/c1ccc(OC)c(OC)c1)NC(=O)/C=C/c1ccc(OC)c(OC)c1` (stereo unspecified): the TGI with OVCAR-3 ovarian, with SK-OV-3 ovarian, in the assay with OVCAR-5 ovarian, in the assay on HOP-92 NSCLC, with CCRF-CEM leukemia and in the assay on SK-MEL-5 melanoma was above 100 µM each time. The TGI in the assay with KM12 colon, in the assay with HT29 colon, with COLO 205 colon, with HCT-116 colon, in the assay on K-562 leukemia and with U251 CNS was above 100 µM throughout. This compound also displayed a TGI in the assay with BT-549 breast above 100 µM.
Consider `Cn1c(-c2ccco2)ccc1-c1ccc(C=O)o1`, for which the TGI with OVCAR-3 ovarian, with SK-OV-3 ovarian, with OVCAR-5 ovarian, in the assay on HOP-92 NSCLC, in the assay on CCRF-CEM leukemia and in the assay with SK-MEL-5 melanoma was above 100 µM each time. For the same compound, the TGI was above 100 µM in the assay on KM12 colon; above 100 µM with HT29 colon; above 100 µM with COLO 205 colon; 53.1 µM with HCT-116 colon; above 100 µM in the assay on K-562 leukemia; above 100 µM in the assay on U251 CNS. Further, the TGI with BT-549 breast was above 100 µM.
Take `COc1ccc(C2SCC(=O)N2c2ccc(-n3c(-c4ccccc4)nc4ccccc4c3=O)cc2)cc1` (stereo unspecified): the TGI with OVCAR-3 ovarian, with SK-OV-3 ovarian, with OVCAR-5 ovarian, in the assay with HOP-92 NSCLC, with CCRF-CEM leukemia and in the assay on SK-MEL-5 melanoma was above 100 µM throughout. The TGI in the assay with KM12 colon, in the assay with HT29 colon, with COLO 205 colon, in the assay with HCT-116 colon, in the assay with K-562 leukemia and in the assay with U251 CNS was above 100 µM in each case. In the assay on BT-549 breast, this compound yielded a TGI above 100 µM.
`O=C(Nc1ccccc1)N(CCN(Cc1ccccc1)C(=O)Nc1ccccc1)CCN(Nc1ccccc1)C(=O)Nc1ccccc1`: the TGI with OVCAR-3 ovarian, in the assay with SK-OV-3 ovarian, in the assay on OVCAR-5 ovarian, in the assay with HOP-92 NSCLC, with CCRF-CEM leukemia and in the assay with SK-MEL-5 melanoma was above 100 µM in each case. Also, the TGI with KM12 colon, in the assay with HT29 colon, with COLO 205 colon, in the assay with HCT-116 colon, in the assay with K-562 leukemia and with U251 CNS was above 100 µM in each case. This compound also yielded a TGI in the assay with BT-549 breast above 100 µM.
